One series has as its system Staphylococcus aureus. Description: Antibacterial activity against Staphylococcus aureus NCIM 2079 by broth dilution technique. The format is functional. On the technique in general: Broth dilution looks for growth in wells or tubes with falling amounts of substance.
The test system of another series is Bacillus subtilis. Briefly: Antibacterial activity against Bacillus subtilis NCIM 2439 by broth dilution technique. The format is functional.
Another series deals with Escherichia coli. Briefly: Antibacterial activity against Escherichia coli NCIM 5051 by broth dilution technique. It is filed as functional.
A further series deals with Pseudomonas aeruginosa. Description: Antibacterial activity against Pseudomonas aeruginosa ATCC 10145 by broth dilution technique. The format is functional.
In the next series the test system is Aspergillus niger. Description: Antifungal activity against Aspergillus niger NCIM 1196 by agar diffusion method. The format is functional. (A growth-free zone around the sample is the usual read-out of agar diffusion tests.)
The subject of another series is Candida albicans. Briefly: Antifungal activity against Candida albicans NCIM 3417 by agar diffusion method. The format is functional.
A short description of series [1]: Octanol-water partition coefficient, log P of the compound. The format is physicochemical.
Series [2] concerns Mycobacterium tuberculosis. Briefly: microbe, parasite or virus in culture. Conditions: H37Rv.
Description: Antimycobacterial activity against Mycobacterium tuberculosis H37Rv by agar double dilution technique

Converted amounts (≈) assume the structure as drawn.

By MIC is commonly meant the lowest concentration that inhibits growth of the organism. Higher therefore signals a less susceptible organism. As a reminder, the logP is a log measure of how a compound divides between an organic and an aqueous phase. The low end stands for lower lipophilicity, the high end for higher lipophilicity.

`Cc1c(NCc2nnc(Cc3ccccc3)o2)c(=O)n(-c2ccccc2)n1C`: the MIC in the series on Staphylococcus aureus was 256 µg/mL (≈ 682 µM); against Bacillus subtilis, 256 µg/mL (≈ 682 µM); against Escherichia coli, 256 µg/mL (≈ 682 µM); in the series on Pseudomonas aeruginosa it was 256 µg/mL (≈ 682 µM); against Aspergillus niger, 512 µg/mL (≈ 1360 µM); in the series on Candida albicans it was 512 µg/mL (≈ 1360 µM). In series [1], the lipophilicity (logP) came to 1.64. In addition, the MIC90 in series [2] amounted to 10 µM (≈ 3.75 µg/mL).
As for `Cc1ccc(-c2nnc(CNc3c(C)n(C)n(-c4ccccc4)c3=O)o2)cc1`, the MIC with Staphylococcus aureus is 512 µg/mL (≈ 1360 µM); with Bacillus subtilis, 512 µg/mL (≈ 1360 µM); in the series with Escherichia coli, 256 µg/mL (≈ 682 µM); against Pseudomonas aeruginosa it was 512 µg/mL (≈ 1360 µM); in the series with Aspergillus niger, 4 µg/mL (≈ 10.7 µM); in the series on Candida albicans it was 4 µg/mL (≈ 10.7 µM). For the same compound, the logP in series [1] is 2.48. Also, in series [2], the MIC90 worked out at 10 µM (≈ 3.75 µg/mL).
Take `NNC(=O)c1ccncc1` [ISONIAZID]: in series [2], the MIC90 came out at 0.78 µM (≈ 0.107 µg/mL).
Consider `Cc1c(NCc2nnc(-c3cccs3)o2)c(=O)n(-c2ccccc2)n1C`, for which the MIC was determined as 8 µg/mL (≈ 21.8 µM) in the series with Staphylococcus aureus; 16 µg/mL (≈ 43.5 µM) against Bacillus subtilis; 8 µg/mL (≈ 21.8 µM) against Escherichia coli; 8 µg/mL (≈ 21.8 µM) against Pseudomonas aeruginosa; 128 µg/mL (≈ 348 µM) against Aspergillus niger; 256 µg/mL (≈ 697 µM) in the series on Candida albicans. This compound came in with a logP in series [1] of 1.9. The compound further gave an MIC90 in series [2] of 6.81 µM (≈ 2.5 µg/mL).
Consider `Cc1ccccc1-c1nnc(CNc2c(C)n(C)n(-c3ccccc3)c2=O)o1`, for which the minimum inhibitory concentration (MIC) was 256 µg/mL (≈ 682 µM) against Staphylococcus aureus; 256 µg/mL (≈ 682 µM) in the series with Bacillus subtilis; 256 µg/mL (≈ 682 µM) in the series on Escherichia coli; 512 µg/mL (≈ 1360 µM) in the series on Pseudomonas aeruginosa; 8 µg/mL (≈ 21.3 µM) with Aspergillus niger; 16 µg/mL (≈ 42.6 µM) against Candida albicans. In series [1], the logP was found to be 2.38. The compound also had an MIC90 in series [2] of over 13.3 µM.
Regarding `COc1ccc(-c2nnc(CNc3c(C)n(C)n(-c4ccccc4)c3=O)o2)cc1`, the MIC in the series with Staphylococcus aureus is over 512 µg/mL; in the series with Bacillus subtilis, over 512 µg/mL; in the series on Escherichia coli, 256 µg/mL (≈ 654 µM); in the series with Pseudomonas aeruginosa, over 512 µg/mL; against Aspergillus niger, 16 µg/mL (≈ 40.9 µM); against Candida albicans, 32 µg/mL (≈ 81.8 µM). In series [1], this compound displayed a lipophilicity (logP) of 2.07. In addition, the MIC90 in series [2] is over 12.8 µM.
`OC(Cn1cncn1)(Cn1cncn1)c1ccc(F)cc1F` [FLUCONAZOLE]: the results for the MIC against Aspergillus niger and in the series on Candida albicans were 2 µg/mL (≈ 6.53 µM) and 1 µg/mL (≈ 3.27 µM), respectively.
On to `Cc1cccc(-c2nnc(CNc3c(C)n(C)n(-c4ccccc4)c3=O)o2)c1`, for which the minimal inhibitory concentration (MIC) in the series on Staphylococcus aureus is over 512 µg/mL; with Bacillus subtilis, over 512 µg/mL; in the series on Escherichia coli, 512 µg/mL (≈ 1360 µM); against Pseudomonas aeruginosa, over 512 µg/mL; with Aspergillus niger, 128 µg/mL (≈ 341 µM); against Candida albicans, 256 µg/mL (≈ 682 µM). In series [1], this compound came in with a logP of 2.39. In series [2], the MIC90 was over 13.3 µM.
With `O=C(O)c1cn(C2CC2)c2cc(N3CCNCC3)c(F)cc2c1=O` [CIPROFLOXACIN], the MIC in the series with Staphylococcus aureus, in the series on Bacillus subtilis and against Pseudomonas aeruginosa was 4 µg/mL (≈ 12.1 µM) in each case.
Turning to `Cc1c(NCc2nnc(COc3ccccc3)o2)c(=O)n(-c2ccccc2)n1C`, the MIC in the series with Staphylococcus aureus is 128 µg/mL (≈ 327 µM); in the series on Bacillus subtilis, 128 µg/mL (≈ 327 µM); against Escherichia coli, 64 µg/mL (≈ 164 µM); against Pseudomonas aeruginosa, 128 µg/mL (≈ 327 µM); in the series on Aspergillus niger, over 512 µg/mL; in the series with Candida albicans, 512 µg/mL (≈ 1310 µM). In series [1], this compound returned a logP of 0.98. In series [2], this compound yielded an MIC90 of 12.8 µM (≈ 5 µg/mL).
Turning to `Cc1c(NCc2nnc(-c3ccc(N)cc3)o2)c(=O)n(-c2ccccc2)n1C`, the MIC against Staphylococcus aureus stood at 16 µg/mL (≈ 42.5 µM); in the series on Bacillus subtilis it was 32 µg/mL (≈ 85 µM); in the series on Escherichia coli it was 16 µg/mL (≈ 42.5 µM); with Pseudomonas aeruginosa, 64 µg/mL (≈ 170 µM); in the series on Aspergillus niger it was 128 µg/mL (≈ 340 µM); in the series with Candida albicans, 128 µg/mL (≈ 340 µM). Further, in series [1], the logP came out at 1.13. In series [2], this compound yielded an MIC90 of 4.15 µM (≈ 1.56 µg/mL).
Turning to `Cc1c(NCc2nnc(-c3ccccc3O)o2)c(=O)n(-c2ccccc2)n1C`, the minimum inhibitory concentration (MIC) in the series on Staphylococcus aureus came to 128 µg/mL (≈ 339 µM); in the series with Bacillus subtilis, 64 µg/mL (≈ 170 µM); in the series on Escherichia coli, 128 µg/mL (≈ 339 µM); in the series on Pseudomonas aeruginosa it was 128 µg/mL (≈ 339 µM); in the series on Aspergillus niger, 8 µg/mL (≈ 21.2 µM); against Candida albicans, 16 µg/mL (≈ 42.4 µM). This compound also came in with a logP in series [1] of 1.71. For the same compound, the MIC90 in series [2] is over 13.2 µM.
`Cc1c(NCc2nnc(-c3ccc(Cl)cc3)o2)c(=O)n(-c2ccccc2)n1C`: the MIC in the series with Staphylococcus aureus amounted to 8 µg/mL (≈ 20.2 µM); with Bacillus subtilis it was 8 µg/mL (≈ 20.2 µM); in the series on Escherichia coli, 4 µg/mL (≈ 10.1 µM); with Pseudomonas aeruginosa, 8 µg/mL (≈ 20.2 µM); against Aspergillus niger, 256 µg/mL (≈ 647 µM); against Candida albicans, 128 µg/mL (≈ 323 µM). In series [1], this compound came in with a lipophilicity (logP) of 2.7. In series [2], the MIC90 is 3.94 µM (≈ 1.56 µg/mL).
On to `Cc1c(NCc2nnc(-c3ccccc3)o2)c(=O)n(-c2ccccc2)n1C`, for which the MIC in the series with Staphylococcus aureus, against Bacillus subtilis, against Escherichia coli, with Pseudomonas aeruginosa, with Aspergillus niger and against Candida albicans was 512 µg/mL (≈ 1420 µM) in each case. For the same compound, the logP in series [1] turned out to be 2.02. This compound also returned an MIC90 in series [2] of 10 µM (≈ 3.61 µg/mL).
For the compound `Cc1c(NCc2nnc(-c3ccccc3Cl)o2)c(=O)n(-c2ccccc2)n1C`, the MIC in the series on Staphylococcus aureus turned out to be 4 µg/mL (≈ 10.1 µM); in the series with Bacillus subtilis, 4 µg/mL (≈ 10.1 µM); against Escherichia coli it was 4 µg/mL (≈ 10.1 µM); against Pseudomonas aeruginosa, 8 µg/mL (≈ 20.2 µM); against Aspergillus niger, 256 µg/mL (≈ 647 µM); with Candida albicans, 256 µg/mL (≈ 647 µM). The compound also gave a logP in series [1] of 2.72. This compound gave an MIC90 in series [2] of 1.97 µM (≈ 0.78 µg/mL).
Consider `CC(=O)Oc1ccccc1-c1nnc(CNc2c(C)n(C)n(-c3ccccc3)c2=O)o1`, for which the MIC was 512 µg/mL (≈ 1220 µM) with Staphylococcus aureus; 256 µg/mL (≈ 610 µM) against Bacillus subtilis; 256 µg/mL (≈ 610 µM) against Escherichia coli; 512 µg/mL (≈ 1220 µM) with Pseudomonas aeruginosa; 512 µg/mL (≈ 1220 µM) against Aspergillus niger; 512 µg/mL (≈ 1220 µM) in the series on Candida albicans. Besides, the logP in series [1] came to 1.98. Further, the MIC90 in series [2] is over 12.8 µM.
Consider `Cc1c(NCc2nnc(-c3ccncc3)o2)c(=O)n(-c2ccccc2)n1C`, for which the minimal inhibitory concentration (MIC) in the series with Staphylococcus aureus was determined as 16 µg/mL (≈ 44.2 µM); against Bacillus subtilis, 16 µg/mL (≈ 44.2 µM); in the series with Escherichia coli, 16 µg/mL (≈ 44.2 µM); against Pseudomonas aeruginosa, 32 µg/mL (≈ 88.3 µM); against Aspergillus niger it was 256 µg/mL (≈ 706 µM); with Candida albicans, 256 µg/mL (≈ 706 µM). Also, the logP in series [1] was 0.8. The MIC90 in series [2] stood at 0.78 µM (≈ 0.283 µg/mL).

The record behind these values is ChEMBL document CHEMBL1921682, “Molecular properties prediction and synthesis of novel 1,3,4-oxadiazole analogues as potent antimicrobial and antitubercular agents” (Bioorg Med Chem Lett, 2011).
